This note sets out measurements from US11014911B2, “CDK2 inhibitors” (Pfizer Inc., priority 2019, dated 2021).

SMILES strings stand for the structures.

The target of the experiment is CDK2/Cyclin E1 full length (Homo sapiens (Human), UniProt P24941). Briefly: CDK2/Cyclin E1 full length mobility shift assay. Type of experiment: biochemical.
Take `CCC(CO)CNC(=O)O[C@@H]1CC[C@H](c2cc(NC(=O)Cc3cnc(C)o3)n[nH]2)C1` (single isomer, unassigned) [Example 527]: the Ki (in general, the equilibrium dissociation constant of an inhibitor or competing ligand from its target) worked out at 2.63 nM. For `CCC(CO)CNC(=O)O[C@@H]1CC[C@H](c2cc(NC(=O)Cc3ccc(OC)cc3)n[nH]2)C1` (single isomer, unassigned) [Example 530], the Ki is 2.03 nM. As to `CCC(CO)CNC(=O)O[C@@H]1CC[C@H](c2cc(NC(=O)Cc3ccc(OC)cc3)n[nH]2)C1` (single isomer, unassigned) [Example 531], the Ki turned out to be 1.51 nM.

Consider `CCC(CO)CNC(=O)O[C@@H]1CC[C@H](c2cc(NC(=O)Cc3cc(F)cc(F)c3)n[nH]2)C1` (single isomer, unassigned) [Example 536], for which the Ki was 2.07 nM. Take `CC(CO)CNC(=O)O[C@@H]1CC[C@H](c2cc(NC(=O)Cc3cc(F)cc(F)c3)n[nH]2)C1` (single isomer, unassigned) [Example 538]: the Ki came to 2.72 nM. Turning to `CC(CO)CNC(=O)O[C@@H]1CC[C@H](c2cc(NC(=O)Cc3cc(F)cc(F)c3)n[nH]2)C1` (single isomer, unassigned) [Example 539], the Ki is 2.35 nM.

For the compound `CCC(O)CNC(=O)O[C@@H]1CC[C@H](c2cc(NC(=O)Cc3ccc(OC)cc3)n[nH]2)C1` (single isomer, unassigned) [Example 540], the Ki amounted to 2.65 nM. Next, `CCC(O)CNC(=O)O[C@@H]1CC[C@H](c2cc(NC(=O)Cc3ccc(OC)cc3)n[nH]2)C1` (single isomer, unassigned) [Example 541]: 1.85 nM; `CCC(O)CNC(=O)O[C@@H]1CC[C@H](c2cc(NC(=O)Cc3cc(F)cc(F)c3)n[nH]2)C1` (single isomer, unassigned) [Example 542]: 2.41 nM; `CCC(O)CNC(=O)O[C@@H]1CC[C@H](c2cc(NC(=O)Cc3cc(F)cc(F)c3)n[nH]2)C1` (single isomer, unassigned) [Example 543]: 1.96 nM. For `CN1CC(CNC(=O)O[C@H]2CC[C@@H](c3cc(NC(=O)Cc4cc(F)cc(F)c4)n[nH]3)C2)OCC1=O` (single isomer, unassigned) [Example 583], the Ki stood at 2.71 nM. Consider `CN1CC(CNC(=O)O[C@H]2CC[C@@H](c3cc(NC(=O)Cc4cc(F)cc(F)c4)n[nH]3)C2)OCC1=O` (single isomer, unassigned) [Example 584], for which the Ki is 3.84 nM.

`Cc1cc(CC(=O)Nc2cc([C@H]3CC[C@@H](OC(=O)N4CCC4C)C3)[nH]n2)on1` (single isomer, unassigned) [Example 590]: the Ki is 2.86 nM. On to `CCC1CCN1C(=O)O[C@@H]1CC[C@H](c2cc(NC(=O)Cc3ncc(C)o3)n[nH]2)C1` (single isomer, unassigned) [Example 599], for which the Ki is 1.38 nM. For the compound `CCC1CCN1C(=O)O[C@@H]1CC[C@H](c2cc(NC(=O)Cc3ncc(C)o3)n[nH]2)C1` (single isomer, unassigned) [Example 600], the Ki worked out at 2.12 nM. To `Cc1ncc(CC(=O)Nc2cc([C@H]3CC[C@@H](OC(=O)NC(C)C)C3)[nH]n2)s1` [Example 2, (1R,3S)-3-(3-{[(2-methyl-1,3-thiazol-5-yl)acetyl]amino}-1H-pyrazol-5-yl)cyclopentyl propan-2-ylcarbamate] belongs 0.31 nM; to `Cc1cc(CC(=O)Nc2cc([C@H]3CC[C@@H](OC(=O)NC4(C)CC4)C3)[nH]n2)no1` [Example 7, (1R,3S)-3-(3-{[(5-methyl-1,2-oxazol-3-yl)acetyl]amino}-1H-pyrazol-5-yl)cyclopentyl (1-methylcyclopropyl)carbamate], 0.61 nM; to `Cc1nnc(CC(=O)Nc2cc([C@H]3CC[C@@H](OC(=O)NC4(C)CCC4)C3)[nH]n2)s1` [Example 18, (1R,3S)-3-(3-{[(5-methyl-1,3,4-thiadiazol-2-yl)acetyl]amino}-1H-pyrazol-5-yl)cyclopentyl (1-methylcyclobutyl)carbamate], 0.17 nM. To `Cc1ncc(CC(=O)Nc2cc([C@@H]3CC[C@H](OC(=O)NC(C)C)C3)[nH]n2)s1` [Example 26] belongs 0.21 nM.
